Assays:
[1] = molecular target: T1, integrins haα4 and β1 (VLA-4) expressed on CHO cells (Homo sapiens, UniProt P05556+P13612); experiment: In vitro Evaluation Test (1): binding of Eu3+-hVCAM-1 D1D7-IgG to CHO cells expressing integrins α4 and β1; conditions: inhibition of Eu3+-hVCAM-1 D1D7-IgG binding to CHO cells expressing α4β1; Ki calculated from IC50
T1 construct: expressed in transfected cells; host or cells: CHO cells
Summary of the method: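 CHO cells transduced with human α4 and β1 were grown for 2 days. They were incubated 1 h at room temperature with Eu3+-hVCAM-1 D1D7-IgG (diluted to 2 nM before addition) and compound, with or without 6% HSA, in HEPES pH 7.5 containing Ca2+, Mg2+ and 4 mM Mn2+. Time-resolved fluorescence gave IC50; Ki used a Scatchard-derived Kd (0.06–20 nM).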

[2] = Evaluation of oral bioavailability by mouse bioassay; type: in vivo; conditions: 10 mg/kg oral, female Balb/C mice, serum 15 minutes after administration, read-out: Blood level
Procedure: A test compound was suspended or dissolved in a proper administration medium to give a concentration of 1 mg/ml. To 7 to 9 week old female Balb/C mice, 10 mg/kg of the resulting suspension or solution was orally administered. Fifteen minutes after the administration, blood was collected from the postcava under anesthesia with ether and the serum was separated from it. The concentration of each test compound was determined by estimating the serum level from a calibration curve obtained with VCAM-1/VLA-4 inhibitory activity as an index or measuring the concentration by using LC/MS/MS.

T1 sequence (P13612 34-1032): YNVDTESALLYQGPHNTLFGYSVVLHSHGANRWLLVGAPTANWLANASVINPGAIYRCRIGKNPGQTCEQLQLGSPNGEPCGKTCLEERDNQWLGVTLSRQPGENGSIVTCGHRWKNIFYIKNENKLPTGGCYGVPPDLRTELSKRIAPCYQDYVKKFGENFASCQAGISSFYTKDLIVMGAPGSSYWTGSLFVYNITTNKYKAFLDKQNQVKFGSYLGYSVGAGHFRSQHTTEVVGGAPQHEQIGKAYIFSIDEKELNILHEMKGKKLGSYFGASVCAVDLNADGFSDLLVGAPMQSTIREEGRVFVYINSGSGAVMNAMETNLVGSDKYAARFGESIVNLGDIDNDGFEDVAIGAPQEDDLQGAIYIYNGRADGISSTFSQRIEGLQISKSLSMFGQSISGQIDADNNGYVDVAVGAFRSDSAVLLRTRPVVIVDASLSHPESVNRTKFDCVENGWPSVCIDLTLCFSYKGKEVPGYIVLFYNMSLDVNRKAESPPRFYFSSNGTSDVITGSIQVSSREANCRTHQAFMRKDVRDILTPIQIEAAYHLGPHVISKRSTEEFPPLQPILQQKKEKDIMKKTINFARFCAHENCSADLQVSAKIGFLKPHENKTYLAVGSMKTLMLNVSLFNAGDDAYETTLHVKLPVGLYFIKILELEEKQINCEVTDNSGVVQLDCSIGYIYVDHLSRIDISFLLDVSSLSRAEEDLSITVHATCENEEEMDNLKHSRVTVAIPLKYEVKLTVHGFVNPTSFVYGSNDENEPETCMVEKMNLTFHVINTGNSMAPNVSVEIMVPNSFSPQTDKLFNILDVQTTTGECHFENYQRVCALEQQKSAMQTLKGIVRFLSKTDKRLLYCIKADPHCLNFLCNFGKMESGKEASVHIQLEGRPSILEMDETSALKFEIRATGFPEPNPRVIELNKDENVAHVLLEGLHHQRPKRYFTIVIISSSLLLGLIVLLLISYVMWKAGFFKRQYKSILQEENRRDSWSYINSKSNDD
T1 sequence (P05556 21-798): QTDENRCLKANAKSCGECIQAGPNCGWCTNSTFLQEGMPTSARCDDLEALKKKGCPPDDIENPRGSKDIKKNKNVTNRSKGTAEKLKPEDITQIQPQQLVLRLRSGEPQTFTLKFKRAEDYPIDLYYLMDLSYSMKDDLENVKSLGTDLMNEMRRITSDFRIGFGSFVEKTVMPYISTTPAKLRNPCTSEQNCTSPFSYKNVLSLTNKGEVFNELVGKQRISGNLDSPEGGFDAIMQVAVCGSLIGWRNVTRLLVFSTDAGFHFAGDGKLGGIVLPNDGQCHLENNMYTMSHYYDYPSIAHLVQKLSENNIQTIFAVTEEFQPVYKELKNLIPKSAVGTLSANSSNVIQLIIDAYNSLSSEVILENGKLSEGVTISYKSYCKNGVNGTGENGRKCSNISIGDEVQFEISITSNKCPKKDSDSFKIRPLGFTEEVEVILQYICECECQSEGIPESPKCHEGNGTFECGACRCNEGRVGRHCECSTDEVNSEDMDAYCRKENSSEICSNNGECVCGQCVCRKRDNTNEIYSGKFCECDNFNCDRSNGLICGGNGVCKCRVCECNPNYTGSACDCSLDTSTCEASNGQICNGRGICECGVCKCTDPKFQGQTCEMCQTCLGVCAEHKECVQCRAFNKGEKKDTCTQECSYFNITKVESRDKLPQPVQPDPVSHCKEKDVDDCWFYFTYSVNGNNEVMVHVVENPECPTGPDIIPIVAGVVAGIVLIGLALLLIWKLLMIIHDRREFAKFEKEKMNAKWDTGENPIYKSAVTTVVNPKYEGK

Ki [1] [µM]	concentration at 15 min [2] [ng/mL]	SMILES
0.0039	4410	CO[C@H]1C[C@@H](CO[C@H]2CC[C@H](C(=O)O)CC2)N(C(=O)Cc2cc(Cl)c(NC(=O)c3nn(C)c4ccccc34)cc2F)C1 [Example 121, trans-4-(1-((5-Chloro-2-fluoro-4-(1-methyl-3-indazolylcarbonylamino)phenyl)acetyl)-(4S)-methoxy-(2S)-pyrrolidinylmethoxy)cyclohexanecarboxylic acid]
0.0021	5160	Cn1cc(C(=O)Nc2ccc(CC(=O)N3C[C@@H](F)C[C@H]3COC3CCC(C(=O)O)CC3)cc2Cl)c2ccccc21 (stereo partly drawn) [Example 39, 4-(1-(3-Chloro-4-(1-methyl-3-indolylcarbonylamino)phenylacetyl)-(4S)-fluoro-(2S)-pyrrolidinylmethoxy)cyclohexanecarboxylic acid]
0.0029	816	COC[C@H]1CC[C@@H](CO[C@H]2CC[C@@H](C(=O)O)CC2)N1C(=O)Cc1ccc2nc(Nc3cc(F)ccc3C)oc2c1F [Example 165, trans-4-(1-((2-(5-Fluoro-2-methylphenylamino)-7-fluoro-6-benzoxazolyl)acetyl)-(5R)-methoxymethyl-(2S)-pyrrolidinylmethoxy)cyclohexanecarboxylic acid]
0.019	–	C[C@H]1C[C@@H](CO[C@H]2CC[C@H](C(=O)O)CC2)N(C(=O)Cc2cc(Cl)c(NC(=O)c3nn(C)c4ccccc34)cc2F)C1 [Example 135, trans-4-(1-(5-Chloro-2-fluoro-4-((1-methyl-1H-3-indazolylcarbonyl)amino)phenylacetyl)-(4S)-methyl-(2S)-pyrrolidinylmethoxy)cyclohexanecarboxylic acid]
0.0056	–	O=C(Cc1ccc(Nc2nc3cc(F)ccc3o2)c(Cl)c1)N1C[C@@H](F)C[C@H]1CO[C@H]1CC[C@H](C(=O)O)CC1 [Example 54, trans-4-(1-(3-Chloro-4-(2-(5-fluorobenzoxazolyl))aminophenylacetyl)-(4S)-fluoro-(2S)-pyrrolidinylmethoxy)cyclohexanecarboxylic acid]
0.034	–	Cn1cc(C(=O)Nc2ccc(CC(=O)N3C[C@@H](F)C[C@H]3CO[C@H]3CC[C@H](C(=O)O)CC3)nc2Cl)c2ccccc21 [Example 69, trans-4-(1-(2-Chloro-3-((1-methyl-3-indolylcarbonyl)amino)-6-pyridyl)acetyl)-(4S)-fluoro-(2S)-cyclohexanecarboxylic acid]
0.039	–	Cn1cc(C(=O)Nc2cc(F)c(CC(=O)N3CC[C@@H](CO[C@H]4CC[C@H](C(=O)O)CC4)C3)cc2Cl)c2ccccc21 [Example 163, trans-4-(1-(5-Chloro-2-fluoro-4-(1-methyl-3-indolyl)carbonylaminophenylacetyl)-(3R)-pyrrolidinylmethyloxy)cyclohexanecarboxylic acid]
0.0016	–	COc1cc(CC(=O)N2C[C@@H](F)C[C@H]2CO[C@H]2CC[C@H](C(=O)O)CC2)c(F)cc1NC(=O)c1cn(C)c2ccccc12 [Example 76, trans-4-((4S)-Fluoro-1-(2-fluoro-5-methoxy-4-((1-methyl-1H-3-indolylcarbonyl)amino)phenylacetyl)-(2S)-pyrrolidinylmethoxy)cyclohexanecarboxylic acid]
0.014	–	COc1cc(CC(=O)N2C[C@@H](F)C[C@H]2CO[C@H]2CC[C@H](C(=O)O)CC2)ccc1NC(=O)c1cc2ccccc2[nH]1 [Example 78, trans-4-(1-((4-((2-Indolylcarbonyl)amino)-3-methoxyphenyl)acetyl)-(4S)-fluoro-(2S)-pyrrolidinylmethoxy)cyclohexanecarboxylic acid]
0.021	–	Cn1cc(C(=O)Nc2cc(F)c(CC(=O)N3C[C@@H](F)C[C@H]3CO[C@H]3CC[C@H](C(=O)O)CC3)cc2Cl)c2c(F)cccc21 [Example 75, trans-4-(1-((5-Chloro-2-fluoro-4-((4-fluoro-1-methyl-3-indolylcarbonyl)amino)phenyl)acetyl)-(4S)-fluoro-(2S)-pyrrolidinylmethoxy)cyclohexanecarboxylic acid]
0.031	–	Cc1ccccc1Nc1nc2ccc(CC(=O)N3C[C@@H](F)C[C@H]3CNc3ccc(C(=O)O)cc3)cc2o1 [Example 33, 4-(1-(2-(2-Methylphenylamino)-6-benzoxazolylacetyl)-(4S)-fluoro-(2S)-pyrrolidinylmethylamino)benzoic acid]
0.00087	–	COC[C@@H]1CC[C@@H](CO[C@H]2CC[C@H](C(=O)O)CC2)N1C(=O)Cc1ccc2nc(Nc3cc(F)ccc3C)oc2c1F [Example 167, trans-4-(1-((2-(5-Fluoro-2-methylphenylamino)-7-fluoro-6-benzoxazolyl)acetyl)-(5S)-methoxymethyl-(2S)-pyrrolidinylmethoxy)cyclohexanecarboxylic acid]
0.025	–	O=C(Nc1cc(F)c(CC(=O)N2C[C@@H](F)C[C@H]2CO[C@H]2CC[C@H](C(=O)O)CC2)cc1Cl)c1nccc2ccccc12 [Example 81, trans-4-(1-((5-Chloro-2-fluoro-4-((1-isoquinolinylcarbonyl)amino)phenyl)acetyl)-(4S)-fluoro-(2S)-pyrrolidinylmethoxy)cyclohexanecarboxylic acid]
0.051	–	Cn1cc(C(=O)Nc2cc(F)c(CC(=O)N3C[C@@H](F)C[C@H]3CO[C@H]3CC[C@H](C(=O)O)CC3)cc2Cl)c2ccc(F)cc21 [Example 73, trans-4-(1-((5-Chloro-2-fluoro-4-((6-fluoro-1-methyl-3-indolylcarbonyl)amino)phenyl)acetyl)-(4S)-fluoro-(2S)-pyrrolidinylmethoxy)cyclohexanecarboxylic acid]
0.017	–	Cn1cc(-c2nc3ccc(CC(=O)N4CCC[C@H]4CO[C@H]4CC[C@H](C(=O)O)CC4)cc3o2)c2ccc(F)cc21 [Example 131, trans-4-(1-((2-(6-Fluoro-1-methyl-3-indolyl)-6-benzoxazolyl)acetyl)-(2S)-pyrrolidinylmethoxy)-1-cyclohexanecarboxylic acid]
0.0073	–	O=C(Cc1ccc(Nc2nc3ccc(F)cc3s2)c(Cl)c1)N1C[C@@H](F)C[C@H]1CO[C@H]1CC[C@H](C(=O)O)CC1 [Example 57, trans-4-(1-(3-Chloro-4-(6-fluoro-2-benzothiazolyl)aminophenylacetyl)-(4S)-fluoro-(2S)-pyrrolidinylmethoxy)cyclohexanecarboxylic acid]
0.0035	–	Cc1ccccc1Nc1nc2ccc(CC(=O)N3CCC[C@H]3COC3CCC(C(=O)O)CC3)cc2o1 (single isomer, unassigned) [22 (Isomer B)]
0.03	–	O=C(O)c1ccc(OC[C@@H]2C[C@H](F)CN2C(=O)Cc2ccc3nc(Nc4ccccc4)oc3c2)cc1 [Example 1]
0.04	–	Cc1ccccc1Nc1nc2ccc(CC(=O)N3C[C@@H](F)C[C@H]3C(=O)N3CCN(CC(=O)O)CC3)cc2o1 [Example 30, 4-((4S)-Fluoro-1-(2-(2-methylphenylamino)-6-benzoxazolylacetyl)-(2S)-pyrrolidinylcarbonyl)-1-piperazinylacetic acid]
0.0027	–	Cn1cc(C(=O)Nc2cc(F)c(CC(=O)N3C[C@@H](S(C)(=O)=O)C[C@H]3CO[C@H]3CC[C@H](C(=O)O)CC3)cc2Cl)c2ccccc21 [Example 128, trans-4-(1-((5-Chloro-2-fluoro-4-((1-methyl-3-indolylcarbonyl)amino)phenyl)acetyl)-(4S)-methanesulfonyl-(2S)-pyrrolidinylmethoxy)cyclohexanecarboxylic acid]
0.059	–	COC[C@@H]1CC[C@@H](CO[C@H]2CC[C@H](C(=O)O)CC2)N1C(=O)Cc1cc(Cl)c(NC(=O)c2nn(C)c3ccccc23)cc1F [Example 168, trans-4-(1-((5-Chloro-2-fluoro-4-((1-methyl-3-indazolyl)carbonyl)aminophenyl)acetyl)-(5S)-methoxymethyl-(2S)-pyrrolidinylmethoxy)cyclohexanecarboxylic acid]
0.017	–	Cn1cc(-c2nc3ccc(CC(=O)N4C[C@@H](F)C[C@H]4CO[C@H]4CC[C@H](C(=O)O)CC4)cc3o2)c2ccc(F)cc21 [Example 99, trans-4-(1-((2-(6-Fluoro-1-methyl-3-indolyl)-6-benzoxazolyl)acetyl)-(4S)-fluoro-(2S)-pyrrolidinylmethoxy)cyclohexanecarboxylic acid]
0.043	–	COC[C@@H]1C[C@@H](O[C@H]2CC[C@H](C(=O)O)CC2)CN1C(=O)Cc1ccc2nc(Nc3cc(F)ccc3C)oc2c1F [Example 156, trans-4-(1-((2-(5-Fluoro-2-methylphenylamino)-7-fluoro-6-benzoxazolyl)acetyl)-(2S)-methoxymethyl-(4R)-pyrrolidinyloxy)cyclohexanecarboxylic acid]
0.0058	–	Cc1ccc(F)cc1Nc1nc2c(F)cc(CC(=O)N3C[C@@H](F)C[C@H]3CO[C@H]3CC[C@H](C(=O)O)CC3)cc2o1 [Example 47, trans-4-(1-((2-(5-Fluoro-2-methylphenylamino)-4-fluoro-6-benzoxazolyl)acetyl)-(4S)-fluoro-(2S)-pyrrolidinylmethoxy)cyclohexanecarboxylic acid]
0.013	–	Cc1cc(CC(=O)N2C[C@@H](F)C[C@H]2CO[C@H]2CC[C@H](C(=O)O)CC2)ccc1Nc1nc2ccccc2o1 [Example 50, trans-4-(1-(4-(2-Benzoxazolyl)amino-3-methylphenylacetyl)-(4S)-fluoro-(2S)-pyrrolidinylmethoxy)cyclohexanecarboxylic acid]

SMILES	Ki [1] [µM]	concentration at 15 min [2] [ng/mL]
Cc1ccccc1Nc1nc2ccc(CC(=O)N3C[C@@H](F)C[C@H]3COC3CCC(C(=O)O)CC3)cc2o1 (single isomer, unassigned) [21 (Isomer G)]	0.382	–
